The text below walks through data of PubChem BioAssay (NCI).

Common to all, as to test: NCI anticancer screen, dose series, 48 h
Test [1] concerns PC-3 prostate.
For test [2], the system named is COLO 205 colon.
For test [3], the system named is CCRF-CEM leukemia.
Test [4] deals with KM12 colon.
Test [5] has as its system SK-MEL-2 melanoma.
Test [6] relates to OVCAR-8 ovarian.
The test system of test [7] is MALME-3M melanoma.
The subject of test [8] is SN12C renal.
Test [9] deals with NCI-H23 lung.
Test [10] deals with HCC-2998 colon.

Each structure is given as a SMILES string.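 Step 1: Grow cells in 96-well plates. Step 2: Expose to compound for 48 hours at 5 concentrations. Step 3: Interpolate endpoints linearly; if unreached, use highest concentration. The concentration for 50% growth inhibition is given as GI50. At the TGI there is no net growth.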

`O=Nc1c(-c2cccc([N+](=O)[O-])c2)nc2cnccn12`: the TGI was 62.6 µM in test [1]; 66.7 µM in test [2]; 1.72 µM in test [3]; 95.4 µM in test [4]; 68.1 µM in test [5]; 53.8 µM in [6]. In addition, the TGI in test [7] was found to be 56.5 µM; in [8], 59.7 µM; in test [9] it was 36.1 µM.

On to `Nc1ccc(-c2nc3ccccc3[nH]2)c(O)c1`, for which the GI50 is 23.9 µM in test [1]; 35 µM in test [2]; 17.9 µM in test [4]; greater than 100 µM in test [5]; 42.3 µM in [6]; 42.4 µM in test [8]. The GI50 in test [9] is 20 µM. In addition, the TGI in test [1] was greater than 100 µM; in test [2] it was greater than 100 µM; in test [4], 57.4 µM; in test [5], greater than 100 µM; in test [6] it was greater than 100 µM; in [8], greater than 100 µM. This molecule also had a TGI in test [9] of 66.3 µM.

Turning to `Cc1[nH]c(C(=O)Nc2ccc(C(=O)N3CCNCC3)cc2OC(C)C)c(Cl)c1Cl`, the GI50 in test [1] is 2.02 µM; in test [3] it was 2.57 µM; in test [4], 1.84 µM; in test [5], 1.97 µM; in test [6] it was 2.25 µM; in test [7] it was 1.59 µM. Also, the GI50 in test [8] is 1.94 µM; in test [10] it was 1.78 µM; in [9], 1.95 µM. The TGI worked out at 5.44 µM in test [1]; 6.94 µM in test [3]; 3.46 µM in [4]; 3.79 µM in [5]; 5.32 µM in [6]; 3.05 µM in [7]. In addition, the TGI in test [8] was determined as 4.28 µM; in test [10], 3.38 µM; in test [9] it was 4.21 µM.

`Nc1ccc(N=Nc2ccccc2)c(N)n1`: the GI50 in [1] is 21.7 µM; in test [2], 26.1 µM; in [3] it was 29.4 µM; in test [4], 15.5 µM; in test [6], 37.5 µM; in test [7] it was 48.5 µM. Moreover, the results for the GI50 in [8], in test [10] and in [9] were 30.4 µM, 24.8 µM and 31.9 µM, respectively. For the same molecule, the TGI was greater than 100 µM in test [1]; 72.8 µM in [2]; greater than 100 µM in test [3]; 56.6 µM in test [4]; greater than 100 µM in test [6]; greater than 100 µM in test [7]. The TGI in test [8] was greater than 100 µM; in test [10], 58.8 µM; in test [9], greater than 100 µM.

For the molecule `COc1cc2c(cc1OCCCOC1=C=C=C(c3ccc4c(c3)c3cc(-c5ccc(OCCCOc6cc7c(cc6OC)C(=O)N6CCC[C@H]6C=N7)cc5)ccc3n4S(=O)(=O)c3ccc(C)cc3)C=C1)N=C[C@@H]1CCCN1C2=O`, the GI50 is 1.27 µM in test [1]; 1.9 µM in [2]; 0.19 µM in test [3]; 1.46 µM in test [4]; 1.54 µM in test [6]; 3.26 µM in test [7]. The GI50 in test [8] is 2 µM; in test [10], 0.731 µM; in test [9], 2.57 µM. In addition, the TGI in test [1] is greater than 28.9 µM; in [2] it was 9.78 µM; in test [3], greater than 50 µM; in [4], 4.3 µM; in test [6] it was greater than 17 µM; in test [7] it was 10.2 µM. The values for the TGI in test [8], in [10] and in [9] were 9.98 µM, 3.67 µM and 24.2 µM, respectively.

As to `COc1ccc(-c2nsc3c2NC(=O)CC3c2ccc3c(c2)OCO3)cc1` (stereo not given), the GI50 in [1] is 2.01 µM; in test [2] it was 0.627 µM; in [3], 1.09 µM; in test [4], 0.645 µM; in test [6], 3.04 µM; in test [7], 0.77 µM. Also, the values for the GI50 in test [8], in test [10] and in test [9] were 2.55 µM, 1.6 µM and 3.2 µM, respectively. Also, the TGI is greater than 100 µM in test [1]; 3.72 µM in test [2]; 8.49 µM in test [3]; greater than 100 µM in test [4]; greater than 100 µM in test [6]; greater than 100 µM in test [7]. Besides, the TGI was greater than 100 µM in [8], 6.37 µM in [10] and greater than 100 µM in [9].

In the case of `O=CN1N=C(c2ccc(Nc3ccnc4cc(Cl)ccc34)cc2)CC1c1ccccc1` (stereo not given), the GI50 in [1] was 4.76 µM; in test [2], 2.21 µM; in [3] it was 2.51 µM; in test [4], 3.41 µM; in test [6], 4.53 µM; in test [7], 4.21 µM. Also, the results for the GI50 in test [8], in test [10] and in test [9] were 3.8 µM, 3.5 µM and 3.64 µM, respectively. Also, the TGI in test [1] was greater than 100 µM; in test [2], 6.15 µM; in test [3], 8.55 µM; in [4], 56.9 µM; in test [6], greater than 100 µM; in [7], greater than 100 µM. Moreover, the TGI was greater than 100 µM in test [8], 29.5 µM in [10] and greater than 100 µM in [9].

Regarding `CCCCCCCCCCCCCC[P+](CCCCCC)(CCCCCC)CCCCCC`, the GI50 is 0.03 µM in [1]; 0.144 µM in test [2]; 0.0397 µM in test [4]; 0.0266 µM in test [5]; 0.0856 µM in [6]; 0.0271 µM in [7]. Further, the GI50 in test [8] is 0.041 µM; in [10] it was 0.168 µM; in test [9], 0.083 µM. The TGI in test [1] is 0.125 µM; in test [2] it was 2.08 µM; in [4], 0.375 µM; in [5], greater than 100 µM; in test [6] it was 1.78 µM; in test [7], 0.0721 µM. Besides, the values for the TGI in test [8], in [10] and in test [9] were 1.17 µM, 1.69 µM and 1.4 µM, respectively.

Regarding `NC1C2C(CC(=O)O)OCC=C3CN4CCC1(C(=O)C(=O)O)C4CC32` (stereo not given), the TGI in test [1], in [2], in test [3], in test [4], in [5] and in test [6] was greater than 100 µM throughout. Moreover, the TGI in test [7], in [8] and in test [9] was greater than 100 µM each time.

Turning to `CCON=C1C(C)(C)C(C)(C)C(C)(C)C1(C)C`, the TGI in test [1], in test [2], in test [3], in test [4], in test [5] and in test [6] was greater than 100 µM in each case. Besides, the TGI in test [7], in test [8] and in test [9] was greater than 100 µM in each case.

Regarding `CC(=N\O)/C(C)=N/O.CC(=N\O)/C(C)=N/O.CC(=N\O)/C(C)=N/O.CC(=N\O)/C(C)=N/O.[Cu].[Cu]`, the GI50 in test [1] is 16.7 µM; in test [2], 18.8 µM; in test [4], 20.6 µM; in test [5], 17.4 µM; in test [6], 20.3 µM; in test [7], 17.7 µM. In addition, the values for the GI50 in [8] and in test [10] were 18.8 µM and 16.8 µM, respectively. Moreover, the TGI in [1] was found to be 30.3 µM; in test [2], 34 µM; in test [4] it was 36.4 µM; in test [5] it was 31.4 µM; in [6], 38.3 µM; in test [7] it was 32.4 µM. The TGI was 35.2 µM in test [8] and 30.5 µM in test [10].

In the case of `C[C@]12CC/C(=N\N)C[C@@H]1CC[C@@H]1[C@@H]2CC[C@]2(C)/C(=N/N)CC[C@@H]12`, the GI50 in test [1], in test [3], in test [4], in test [5], in test [6] and in test [7] was greater than 100 µM in each case. Besides, the GI50 in test [8], in test [10] and in [9] was greater than 100 µM each time. Also, the TGI in test [1], in test [3], in [4], in test [5], in test [6] and in test [7] was greater than 100 µM throughout. Further, the TGI in [8], in test [10] and in test [9] was greater than 100 µM in each case.

With `CCOC(=O)c1cc2c(n1Cc1cc(OC)cc(OC)c1)-c1oncc1CCC2`, the GI50 was 0.0644 µM in [1]; 0.0647 µM in test [2]; 0.0542 µM in [3]; 0.0472 µM in [4]; 0.038 µM in [5]; 0.169 µM in test [6]. Also, the GI50 in test [8] was 0.252 µM; in test [10], 0.322 µM; in [9], 0.544 µM. The TGI in test [1] is greater than 100 µM; in [2] it was 6.15 µM; in test [3], greater than 100 µM; in [4], greater than 20.5 µM; in [5], greater than 100 µM; in test [6], greater than 100 µM. The TGI in [8], in [10] and in test [9] was greater than 100 µM each time.

In the case of `CC1=C(SCc2ccccc2)C(=O)c2ccccc2C1=O`, the TGI stood at 37.3 µM in test [1]; 38.9 µM in test [2]; 35.7 µM in [4]; 40.1 µM in test [5]; 38.8 µM in test [6]; 29.2 µM in [7]. The TGI came out at 40.3 µM in test [8], 57 µM in [10] and 41.8 µM in test [9].

Regarding `CCN(CC)c1ccc(N=C2C=C(C(=O)Nc3ccc(S(C)(=O)=O)cc3)C(=O)c3ccccc32)c(C)c1`, the GI50 was 1.05 µM in test [1]; 32.7 µM in test [2]; greater than 100 µM in [3]; 1.03 µM in [4]; greater than 100 µM in test [6]; 30.9 µM in test [7]. For the same molecule, the figures for the GI50 in [8], in test [10] and in test [9] were greater than 100 µM, greater than 100 µM and 82 µM, respectively. Further, the TGI in [1], in test [2], in [3], in test [4], in test [6] and in [7] was greater than 100 µM in each case. For the same molecule, the TGI in [8], in test [10] and in test [9] was greater than 100 µM throughout.

On to `O=[N+]([O-])c1cc(O)c(O)cc1-c1cn2ccsc2n1`, for which the GI50 in [1] is 63.4 µM; in [2], 75.2 µM; in test [4], 40.4 µM; in test [5] it was 57.1 µM; in test [6] it was 52.5 µM; in test [7], greater than 100 µM. Moreover, the GI50 in [8] is 85.6 µM; in [10], 43.7 µM; in test [9] it was 67.5 µM. Moreover, the TGI in [1], in test [2], in test [4], in test [5], in [6] and in [7] was greater than 100 µM throughout. The TGI in [8], in test [10] and in [9] was greater than 100 µM in each case.

With `Cc1ccc2c[c]1[Hg][CH2]COS2(=O)=O`, the GI50 in [1] was 18.3 µM; in test [2], 18.8 µM; in test [5], 21.4 µM; in test [6], 16 µM; in test [7] it was 19.8 µM; in [8] it was 17.2 µM. Moreover, the figures for the GI50 in [10] and in [9] were 15.7 µM and 23.4 µM, respectively. Further, the TGI is 32.4 µM in [1]; 32.8 µM in [2]; 38.4 µM in [5]; 29.5 µM in test [6]; 34 µM in test [7]; 30.9 µM in [8]. Besides, the results for the TGI in test [10] and in test [9] were 34.5 µM and 49.2 µM, respectively.

As to `COc1ccc(C(O)c2cc3c(N)c(C(=O)Nc4cccc(Cl)c4C)sc3nc2C)cc1` (stereo not given), the GI50 in test [1] is 0.768 µM; in test [3], 0.733 µM; in test [4] it was 0.865 µM; in test [5] it was 0.909 µM; in test [6], 0.948 µM; in test [7] it was 0.809 µM. Also, the results for the GI50 in [8], in test [10] and in test [9] were 0.815 µM, 0.444 µM and 0.926 µM, respectively. Also, the TGI in test [1] turned out to be 1.63 µM; in [3] it was 1.93 µM; in test [4], 1.68 µM; in test [5], 1.84 µM; in test [6], 2.17 µM; in test [7], 1.51 µM. The TGI in test [8] was 1.61 µM; in test [10], 1.16 µM; in test [9] it was 1.8 µM.
